Measured values published in ChEMBL document CHEMBL4715868, “Neurotrophic isoindolinones from the fruiting bodies of Hericium erinaceus” (2021).
The source made the active and inactive calls. The rule behind the calls is not given here.

Key:
[1] = Neurotrophic activity in […] N2a cells assessed as increase in NGF-mediated neurite outgrowth at 25 uM incubated for 24 hrs by cell imaging analysis relative to control; format: functional
[2] = tested on: C6; assay: Upregulation of BDNF production in rat C6 cells co-cultured with N2a cells at 10 to 50 uM incubated for 24 hrs followed by cell transfer to N2a cells by Western blot analysis; format: functional, cell-based; details: dose 10-50 µM
[3] = tested on: C6; assay: Neurotrophic activity in rat C6 cells assessed as NGF production at 10 to 50 uM incubated for 24 hrs by ELISA; format: functional, cell-based; details: dose 10-50 µM
[4] = tested on: C6; assay: Upregulation of NGF production in rat C6 cells co-cultured with N2a cells at 10 to 50 uM incubated for 24 hrs followed by cell transfer to N2a cells by Western blot analysis; format: functional, cell-based; details: dose 10-50 µM
[5] = tested on: C6; assay: Upregulation of Syp production in rat C6 cells co-cultured with N2a cells at 10 to 50 uM incubated for 24 hrs followed by cell transfer to N2a cells by Western blot analysis; format: functional, cell-based; details: dose 10-50 µM
[6] = Neurotrophic activity in […] N2a cells assessed as increase in NGF-mediated neurite outgrowth at 10 uM incubated for 24 hrs by cell imaging analysis relative to control; format: functional

COc1cc2c(c(O)c1CCO)CN(CCc1ccccc1)C2=O
Activity [1]: 122.82%
Activity [2]: Active
Activity [3]: Dose-dependent effect
Activity [4]: Active
Activity [5]: inactive

CC1=C(/C=C/C(C)=C/C=C/C(C)=C/C(=O)O)C(C)(C)CCC1 [TRETINOIN]
Activity [6]: 112.08%

COc1cc2c(c(O)c1C/C=C(\C)CCC=C(C)C)C(=O)N(CCc1ccccc1)C2
Activity [1]: 116.82%
Activity [3]: Active
Activity [4]: Active
Activity [5]: inactive

COc1cc2c(c(O)c1C/C=C(\C)CC/C=C(\C)C(=O)O)COC2=O
Activity [2]: Active
Activity [3]: Active
Activity [4]: Active
Activity [5]: inactive
